Test results from PubChem BioAssay AID1996.
≈ marks a conversion by molar mass, not a printed value.

Settings: buffer; pH 7.4; 200.0 µM

Row | SMILES | solubility kinetic
1 | O=C(Cc1ccc(Br)cc1)Nc1ccc(Cl)cc1 | < 0.7 µg/mL
2 | Cc1cc(N2CCCC2=O)ccc1S(=O)(=O)NC1CCCCC1 | 29.3 µg/mL (≈ 87.1 µM)
3 | O=C(c1ccc([N+](=O)[O-])cc1[N+](=O)[O-])N1CCCC1 | > 39.8 µg/mL
4 | O=C(Nc1ccc2ccccc2c1)c1cccc(F)c1 | 1.3 µg/mL (≈ 4.9 µM)
5 | COc1ccc(OCC2NCCc3cc(OC)c(OC)cc32)cc1 (stereo not given) | 42 µg/mL (≈ 128 µM)
6 | COC(=O)c1c(C)[nH]c(C(=O)CC#N)c1C | 27.2 µg/mL (≈ 124 µM)
7 | CCC(=O)c1ccc(OCC(=O)OCC(=O)NCC2CCCO2)cc1 (stereo not given) | 49.5 µg/mL (≈ 142 µM)
8 | O=C(/C=C/Nc1ccccc1O)c1ccco1 | 5.5 µg/mL (≈ 24 µM)
9 | CC1(C)CC(=O)C2=C(C1)NC(=O)NC2c1ccccc1Cl (stereo not given) | 45.6 µg/mL (≈ 150 µM)
10 | O=C(CN1CCOCC1)NNC(=S)Nc1ccccc1 | > 44.2 µg/mL
11 | CC(=O)N1CCN(C(=O)c2ccco2)CC1 | > 33.3 µg/mL
12 | O=C1CCCc2c1nc(-c1ccccc1F)n2O | > 36.9 µg/mL
13 | CN1CCN(C(=S)Nc2ccc(S(N)(=O)=O)cc2)CC1 | > 47.2 µg/mL
14 | COC(=O)c1ccc(OCC2NCCc3cc(OC)c(OC)cc32)cc1 (stereo not given) | > 53.6 µg/mL
15 | CNC(=O)c1ccccc1NC(=O)C1CC(=O)N(C(C)C)C1 (stereo not given) | 44.7 µg/mL (≈ 147 µM)
16 | Cc1nc2cc(NC(=O)Nc3cccc([N+](=O)[O-])c3)ccc2n1C | 0.6 µg/mL (≈ 1.84 µM)
17 | CCc1ccc2c(CN3CCOCC3)cc(=O)oc2c1 | > 41 µg/mL
18 | COc1cc(SC)ccc1C(=O)Nc1ncc(C)s1 | 1.4 µg/mL (≈ 4.76 µM)
19 | Cl.Clc1ccc(CNCC2CCCO2)c(Cl)c1 (stereo not given) | 37 µg/mL
20 | Cl.N=C(N=C(N)N)N1CCOCC1 | > 31.1 µg/mL

Row | SMILES | solubility kinetic
21 | CC(C)(CNCc1ccccc1)NS(=O)(=O)c1ccccc1 | > 47.8 µg/mL
22 | CC(C)(C)NC(=O)COC(=O)c1ccc(Cl)nc1 | 36.4 µg/mL (≈ 134 µM)
23 | O=C(Cc1ccccc1)Nc1ccc(C(=O)NCc2ccccc2)cc1 | < 0.4 µg/mL
24 | N#Cc1ccc(OCC(=O)OCC(=O)c2ccccc2)cc1 | > 44.3 µg/mL
25 | Cn1c(=O)c2sccc2n(Cc2cccc(Br)c2)c1=O | 1.4 µg/mL (≈ 3.99 µM)
26 | Cn1cnnc1SCC(=O)NNC(=O)c1ccc([N+](=O)[O-])cc1 | > 50.4 µg/mL
27 | Cc1ccc(C(=O)CCC(=O)NCc2ccccc2)cc1 | 16.9 µg/mL (≈ 60.1 µM)
28 | CNC(=O)C(=O)NCCCN1CCOCC1 | > 34.4 µg/mL
29 | O=C(O)C1CCC(N2C(=O)C3C4CCC(C4)C3C2=O)CC1 (stereo not given) | > 43.7 µg/mL
30 | CCCOc1ccc(-c2cn3ccccc3n2)cc1 | 2.3 µg/mL (≈ 9.12 µM)
31 | O=C(COC(=O)c1ccc(OC(F)F)cc1)NCc1cccs1 | 35.5 µg/mL (≈ 104 µM)
32 | CC(=O)c1ccccc1NC(=O)COC(=O)c1cc[n+]([O-])cc1 | > 47.1 µg/mL
33 | O=[N+]([O-])c1ccc(N2CCN(c3ccccc3Cl)CC2)cn1 | 2 µg/mL (≈ 6.27 µM)
34 | CO/N=C(\CCC(=O)O)c1cccs1 | > 32 µg/mL
35 | Cc1ccc(C2(c3ccc(C)cc3)NC(=O)N(CC(=O)NCCCN3CCCC3=O)C2=O)cc1 | > 69.4 µg/mL
36 | O=C(N/C=C/n1cnc2cc(C(F)(F)F)ccc21)c1ccccc1F | 4.9 µg/mL (≈ 14 µM)
37 | Cc1ncc([N+](=O)[O-])n1Cc1ccc(Cl)cc1 | 34.7 µg/mL (≈ 138 µM)
38 | Cc1cc(Cl)cc(C)c1OCC(=O)NC1CCCCCC1 | 1.9 µg/mL (≈ 6.13 µM)
39 | CC(C)c1ccc(N(CC(=O)N2CCOCC2)S(C)(=O)=O)cc1 | 32.9 µg/mL (≈ 96.6 µM)
40 | CNc1nc(NC#N)nc(SC)n1 | 24.9 µg/mL (≈ 127 µM)

Row | SMILES | solubility kinetic
41 | CCOC(=O)c1cc(NC(=O)c2cccnc2)ccc1N1CCOCC1 | > 53.3 µg/mL
42 | Cc1cc2c(c(=O)o1)C(CCC1CCCCC1)C(C#N)=C(N)O2 (stereo not given) | 8 µg/mL (≈ 25.4 µM)
43 | O=S(=O)(c1ccc(=S)[nH]c1)N1CCN(Cc2ccccc2)CC1 | > 52.4 µg/mL
44 | CC(=O)c1cccc(NC(=O)CCCSc2ccccc2)c1 | 2.9 µg/mL (≈ 9.25 µM)
45 | Cc1ccc2nc(N3CCOCC3)c(C=O)c(=O)n2c1 | > 41 µg/mL
46 | COc1ccc2ccc(OCC(=O)Nc3cc(C)on3)cc2c1 | 12.4 µg/mL (≈ 39.7 µM)
47 | NC(=O)CSc1nccn1Cc1ccc2c(c1)OCO2 | > 43.7 µg/mL
48 | O=[N+]([O-])c1ccc(Nc2nccc(Cl)n2)cc1 | 1.4 µg/mL (≈ 5.59 µM)
49 | CCCc1cc(=O)[nH]c(SCC(=O)NC2CCCCCCC2)n1 | 14.5 µg/mL (≈ 43 µM)
50 | Cc1cc(N)ccc1NC(=O)CN1CCOCC1 | > 37.4 µg/mL
51 | CCCc1cc(=O)[nH]c(NCCc2ccccc2)n1 | > 38.6 µg/mL
52 | NCCCN1CCN(c2ccccc2)CC1 | 26.3 µg/mL (≈ 120 µM)
53 | O=C(NCc1ccc2c(c1)OCO2)c1cc(Cl)ccc1Cl | 1.7 µg/mL (≈ 5.24 µM)
54 | O=[N+]([O-])c1ccc(N2CCN(c3ccccc3F)CC2)nc1 | 0.7 µg/mL (≈ 2.32 µM)
55 | CCc1ccccc1OCC(=O)OCC(=O)N1CC(=O)Nc2ccccc21 | 35.7 µg/mL (≈ 96.9 µM)
56 | COc1ccc(C(=O)OCC(=O)NC2CC2)cc1OC | > 41.9 µg/mL
57 | CN(C)/N=C/c1ccc(N2CCOCC2)cc1 | > 35 µg/mL
58 | COc1ccc(C(=O)N[C@H](C(=O)NCCCSc2ccccc2)C(C)C)cc1 | 2.2 µg/mL (≈ 5.49 µM)
59 | COc1ccc(CCNC(=O)c2cc(C)oc2C)cc1 | > 41 µg/mL
60 | Cc1ccc(NC(=S)N2CCC(NC(=O)c3ccccc3)CC2)cc1 | 8.8 µg/mL (≈ 24.9 µM)
